# Test results as given in patent US5959178A, “Modification of lignin synthesis in plants” (Imperial Chemical Industries PLC, priority 1991, dated 1999).
# Target: T1, purified poplar OMT (Populus trichocarpa x Populus deltoides, UniProt Q9LWB8)
# T1 construct: closely related isoforms co-purify
# Assay: Specific activity of the purified poplar OMT towards O-diphenolic substrates
# Assay type: biochemical
# Description: The specific activity of the purified OMT towards three different O-diphenolic substrates was measured. Using catechol, caffeic acid, and hydroxyferulic acid as substrate, we found an OMT activity of 0, 30, and 15 nkat/mg protein, respectively.
# T1 sequence (Q9LWB8 entry or part of it T91I): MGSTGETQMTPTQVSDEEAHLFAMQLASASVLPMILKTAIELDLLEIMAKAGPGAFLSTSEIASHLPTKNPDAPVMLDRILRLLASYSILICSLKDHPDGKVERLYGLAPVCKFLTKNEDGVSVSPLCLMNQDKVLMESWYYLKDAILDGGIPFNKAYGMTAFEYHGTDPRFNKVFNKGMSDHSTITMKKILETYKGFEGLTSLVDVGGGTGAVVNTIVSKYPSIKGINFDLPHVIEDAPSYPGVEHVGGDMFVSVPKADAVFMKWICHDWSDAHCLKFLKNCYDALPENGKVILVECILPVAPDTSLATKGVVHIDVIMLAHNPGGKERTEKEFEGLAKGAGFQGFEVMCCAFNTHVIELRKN
row,SMILES,OMT activity (specific activity) with compound as substrate [nkat/mg protein]
1,O=C(O)/C=C/c1ccc(O)c(O)c1 [caffeic acid],30
2,Oc1ccccc1O [catechol],0
